According to ChEMBL document CHEMBL4619763 (J Nat Prod, 2020):
Calls of active or inactive are those of the source. No cut-off for these calls is given here.

Assays:
Rattus norvegicus [1] = experiment: Diuretic activity in normotensive Wistar rat assessed as urine pH at 0.01 mg/kg, ip after 8 hrs (reference value: 6.05 +/- 0.22); format: functional
Rattus norvegicus [2] = experiment: Diuretic activity in normotensive Wistar rat assessed as urine pH at 0.1 mg/kg, ip after 8 hrs (reference value: 6.05 +/- 0.22); format: functional
Rattus norvegicus [3] = experiment: Diuretic activity in normotensive Wistar rat assessed as urine conductivity at 0.01 mg/kg, ip after 8 hrs (reference value: 24.87 +/- 0.54 mS/cm); format: functional
Rattus norvegicus [4] = experiment: Diuretic activity in normotensive Wistar rat assessed as urine conductivity at 0.1 mg/kg, ip after 8 hrs (reference value: 24.87 +/- 0.54 mS/cm); format: functional
Rattus norvegicus [5] = experiment: Diuretic activity in normotensive Wistar rat assessed as urine conductivity at 1 mg/kg, ip after 8 hrs (reference value: 24.87 +/- 0.54 mS/cm); format: functional
Rattus norvegicus [6] = experiment: Diuretic activity in normotensive Wistar rat assessed as urinary sodium excretion at 0.1 mg/kg, po administered via gavage after 8 hrs (reference value: 61.82 to 80.81 mmol/L); format: functional
Rattus norvegicus [7] = experiment: Diuretic activity in normotensive Wistar rat assessed as urinary sodium excretion at 1 mg/kg, po administered via gavage after 8 hrs (reference value: 61.82 to 80.81 mmol/L); format: functional
Rattus norvegicus [8] = experiment: Diuretic activity in normotensive Wistar rat assessed as urinary sodium excretion at 1 mg/kg, ip after 8 hrs (reference value: 81.56 +/- 13.10 mmol/L); format: functional
Rattus norvegicus [9] = experiment: Diuretic activity in normotensive Wistar rat assessed as urinary potassium excretion at 0.1 mg/kg, po administered via gavage after 8 hrs (reference value: 22.39 to 24.21 mmol/L); format: ADME, organism-based; details: in vivo
Rattus norvegicus [10] = experiment: Diuretic activity in normotensive Wistar rat assessed as urinary calcium excretion at 0.01 mg/kg, […] administered via gavage after 8 hrs (reference value: 5.28 +/- 0.09 mg/dl); format: functional
Rattus norvegicus [11] = experiment: Diuretic activity in normotensive Wistar rat assessed as urine pH at 0.1 mg/kg, po administered via gavage after 8 hrs in presence of hydrochlorothiazide (reference value: 6.14 to 6.21); format: functional
Rattus norvegicus [12] = experiment: Diuretic activity in normotensive Wistar rat assessed as urine pH at 0.1 mg/kg, po administered via gavage after 8 hrs in presence of L-NAME (reference value: 6.14 to 6.21); format: functional
Rattus norvegicus [13] = experiment: Diuretic activity in normotensive Wistar rat assessed as urine conductivity at 0.1 mg/kg, po administered via gavage after 8 hrs in presence of indomethacin (reference value: 19.54 +/- 0.98 mS/cm); format: functional
Rattus norvegicus [14] = experiment: Diuretic activity in normotensive Wistar rat assessed as urine conductivity at 0.1 mg/kg, po administered via gavage after 8 hrs in presence of L-NAME (reference value: 19.54 +/- 0.98 mS/cm); format: functional
Rattus norvegicus [15] = experiment: Diuretic activity in normotensive Wistar rat assessed as urinary potassium excretion at 0.1 mg/kg, po administered via gavage after 8 hrs in presence of hydrochlorothiazide (reference value: 22.39 to 24.21 mmol/L); format: ADME, organism-based; details: in vivo
Rattus norvegicus [16] = experiment: Diuretic activity in normotensive Wistar rat assessed as urinary potassium excretion at 0.1 mg/kg, po administered via gavage after 8 hrs in presence of furosemide (reference value: 22.39 to 24.21 mmol/L); format: ADME, organism-based; details: in vivo
Rattus norvegicus [17] = experiment: Diuretic activity in normotensive Wistar rat assessed as urinary potassium excretion at 0.1 mg/kg, po administered via gavage after 8 hrs in presence of amiloride (reference value: 22.39 to 24.21 mmol/L); format: ADME, organism-based; details: in vivo
Rattus norvegicus [18] = experiment: Diuretic activity in normotensive Wistar rat assessed as urinary chloride excretion at 0.1 mg/kg, po administered via gavage after 8 hrs in presence of indomethacin (reference value: 135.10 to 143.70 mmol/L); format: functional
Rattus norvegicus [19] = experiment: Diuretic activity in normotensive Wistar rat assessed as urinary calcium excretion at 0.1 mg/kg, po administered via gavage after 8 hrs in presence of L-NAME (reference value: 5.93 to 6.87 mg/dl); format: functional
Rattus norvegicus [20] = experiment: Diuretic activity in normotensive Wistar rat assessed as increase in urine volume at 0.1 mg/kg, po administered via gavage for 7 days; format: functional, organism-based
Rattus norvegicus [21] = experiment: Diuretic activity in normotensive Wistar rat assessed as increase in urinary sodium excretion at 0.1 mg/kg, po administered via gavage for 7 days; format: functional, organism-based
Rattus norvegicus [22] = experiment: Diuretic activity in spontaneous hypertensive Wistar rat assessed as decrease in urinary calcium excretion at 0.1 mg/kg, po administered via gavage for 7 days; format: functional, organism-based
Rattus norvegicus [23] = experiment: Diuretic activity in normotensive Wistar rat assessed as effect on urinary potassium excretion at 0.1 mg/kg, po administered via gavage for 7 days; format: ADME, organism-based; details: in vivo, 168 h
[24] = Toxicity in normotensive Wistar rat assessed as changes in plasma sodium level at 0.1 mg/kg, po administered for 7 days; format: organism-based; details: in vivo, 168 h
[25] = Toxicity in spontaneous hypertensive Wistar rat assessed as changes in plasma chloride level at 0.1 mg/kg, po administered for 7 days; format: organism-based; details: in vivo, 168 h
[26] = Toxicity in normotensive Wistar rat assessed as changes in plasma AST level at 0.1 mg/kg, po administered for 7 days; format: organism-based; details: in vivo, 168 h
[27] = Toxicity in normotensive Wistar rat assessed as changes in plasma ALT level at 0.1 mg/kg, po administered for 7 days; format: organism-based; details: in vivo, 168 h
[28] = Toxicity in spontaneous hypertensive Wistar rat assessed as changes in plasma nitrite acid level at 0.1 mg/kg, po administered for 7 days; format: organism-based; details: in vivo, 168 h
[29] = Toxicity in normotensive Wistar rat assessed as changes in urinary creatinine at 0.1 mg/kg, po administered for 7 days; format: organism-based; details: in vivo, 168 h
[30] = Toxicity in spontaneous hypertensive Wistar rat assessed as changes in urinary creatinine at 0.1 mg/kg, po administered for 7 days; format: organism-based; details: in vivo, 168 h
[31] = Toxicity in spontaneous hypertensive Wistar rat assessed as changes in urea level in urine at 0.1 mg/kg, po administered for 7 days; format: organism-based; details: in vivo, 168 h
Rattus norvegicus [32] = experiment: Cardioprotective activity in spontaneous hypertensive Wistar rat assessed as effect on heart weight at 0.1 mg/kg, po administered for 7 days; format: functional, organism-based
Rattus norvegicus [33] = experiment: In vivo antioxidant activity in Wistar rat model of hypertension-induced oxidative stress assessed as reduction in nitrite level in renal tissue at 0.1 mg/kg, po administered via gavage for 7 days by Griess reagent based assay; format: functional, organism-based
Rattus norvegicus [34] = experiment: Renal protective activity in spontaneous hypertensive Wistar rat assessed as reduction in hypertension-induced glomerular size at 0.1 mg/kg, po administered via gavage for 7 days by hematoxylin and eosin staining based microscopic analysis; format: functional, organism-based
Rattus norvegicus [35] = experiment: Renal protective activity in spontaneous hypertensive Wistar rat assessed as reduction in hypertension-induced mesangial space disarrangement at 0.1 mg/kg, po administered via gavage for 7 days by hematoxylin and eosin staining based microscopic analysis; format: functional, organism-based
Rattus norvegicus [36] = experiment: Anti-urolithic activity in spontaneous hypertensive Wistar rats assessed as reduction in CaOx crystal formation in cumulative urine at 0.1 mg/kg, po administered via gavage in presence of sodium oxalate by Neubauer counting chamber method relative to control; format: functional; parameters: scale not given: the % may be the effect or the level left
[37] = Anti-urolithic activity in synthetic urine assessed as reduction in CaOx crystal formation at 0.01 mg/mL in presence of sodium oxalate after 60 mins by Neubauer counting chamber method relative to control; format: functional; parameters: scale not given: the % may be the effect or the level left

C[C@@H]1O[C@@H](Oc2c(-c3ccc(O)cc3)oc3cc(O)cc(O)c3c2=O)[C@H](O)[C@H](O)[C@H]1O [AFZELIN]
pH (Rattus norvegicus [1]): 5.82
pH (Rattus norvegicus [2]): 5.89
Activity (Rattus norvegicus [3]): 26.4 mS/cm
Activity (Rattus norvegicus [4]): 24.35 mS/cm
Activity (Rattus norvegicus [5]): 24.92 mS/cm
Activity (Rattus norvegicus [6]): 53.09 to 56.99 mmol/L
Activity (Rattus norvegicus [7]): 74.67 mmol/L
Activity (Rattus norvegicus [8]): 62.46 mmol/L
Activity (Rattus norvegicus [9]): 24.2 to 24.7 mmol/L
Activity (Rattus norvegicus [10]): 5.6 mg/dL
pH (Rattus norvegicus [11]): 6.42
pH (Rattus norvegicus [12]): 6.43
Activity (Rattus norvegicus [13]): 19.34 mS/cm
Activity (Rattus norvegicus [14]): 15.97 mS/cm
Activity (Rattus norvegicus [15]): 33.28 mmol/L
Activity (Rattus norvegicus [16]): 20.41 mmol/L
Activity (Rattus norvegicus [17]): 1.95 mmol/L
Activity (Rattus norvegicus [18]): 284.5 mmol/L
Activity (Rattus norvegicus [19]): 4.82 mg/dL
Activity (Rattus norvegicus [20]): Active
Activity (Rattus norvegicus [21]): Active
Activity (Rattus norvegicus [22]): Active
Activity (Rattus norvegicus [23]): Non-Toxic
Activity [24]: Non-Toxic
Activity [25]: Non-Toxic
Activity [26]: Non-Toxic
Activity [27]: Non-Toxic
Activity [28]: Non-Toxic
Activity [29]: Non-Toxic
Activity [30]: Non-Toxic
Activity [31]: Non-Toxic
Activity (Rattus norvegicus [32]): inactive
Activity (Rattus norvegicus [33]): Active
Activity (Rattus norvegicus [34]): Active
Activity (Rattus norvegicus [35]): Active
Activity (Rattus norvegicus [36]): 92.53%
Activity [37]: 57.47%
